Reference: ChEMBL document CHEMBL5247626, “In vitro and in vivo biological evaluation of newly synthesized multi-target 20(R)-panaxadiol derivatives for treating Alzheimer's disease” (Eur J Med Chem, 2022)
The source made the active and inactive calls. The rule behind the calls is not given here.

Columns and labels:
[1] = tested on: PC-12; assay: Neuroprotective activity against amyloid beta (25 to 35)-induced rat PC12 cells assessed as decrease in beta-secretase protein expression level at 3.75 to 30 uM incubated for 30 mins followed by amyloid beta (25 to 35) addition and measured after 24 hrs by ELISA; format: functional, cell-based; conditions: dose 3.75-30 µM, time 24.5 hrs
[2] = Cytotoxicity against human HUVEC cells assessed as cell viability at 120 uM incubated for 24 hrs by MTT assay; format: toxicity, cell-based; conditions: read-out: Activity
[3] = tested on: PC-12; assay: Neuroprotective activity against amyloid beta (25 to 35)-induced rat PC12 cells assessed as decrease in intracellular ROS level at 7.5 uM incubated for 24 hrs by DCFH-DA staining based flow cytometry assay; format: functional, cell-based

For `CC1(C)CCC[C@](C)([C@H]2CC[C@]3(C)[C@@H]2[C@H](O)C[C@@H]2[C@@]4(C)CC[C@H](OC(=O)NCc5ccccc5)C(C)(C)[C@@H]4CC[C@]23C)O1`, the Activity [1] was “Active”, the viability at 24 h, 120 µM [2] was greater than 50% and the Activity [3] was “Active”.
